Assays:
[1] = target: T1, IRE1α (Homo sapiens, UniProt O75460); experiment: Biochemical assay to detect inhibition of kinase activity of IRE1α (ADP-Glo)
T1 construct: purchased Signal Chem E31-11G
Procedure: Biochemical Assays to Detect Inhibition of Kinase Activity of IRE1α
The kinase reactions were performed in 384 well white ProxiPlate-384 Plus plates (PERKIN Elmer 6008280) using 25 mM MOPS assay buffer with 1 mM dithiothreitol, 25 mM MgCl2, 12.5 mM β-glycerophosphate, 5 mM EGTA, and 50 μg/mL BSA. Test compounds were prepared on the day of assay and dispensed using D300 digital dispenser as a 10-point ½ log dilution series in duplicate, normalized to a final DMSO concentration of 3%. Test compounds were pre-incubated for 30 min at room temperature with 10 nM IRE1α kinase (E31-11G from Signal Chem) in 2.5 μL of assay buffer and the reaction started by addition of 2.5 μL of ATP in assay buffer, to give a final ATP concentration of 100 μM and 5 nM IRE1α kinase. After 4 hours incubation at room temperature the reactions were stopped and the kinase activity determined using the ADP-Glo™ reagent from Promega, according to the manufacturer's instructions. Luminescence was measured on a luminometer (EnVision, PerkinElmer) and IC50 values calculated by fitting a sigmoidal curve to percent inhibition of control versus Log10 of compound concentration.

[2] = target: T1, IRE1α; experiment: Biochemical assay: inhibition of RNase activity of IRE1α; conditions: enzyme 0.325 nM, substrate 100 nM, 20 minutes
In short: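 RNase cleavage monitored as dequenching of a 5′ Alexa Fluor 647/3′ quencher RNA oligo (100 nM), stopped with 5 M urea after 20 min at room temperature. Enzyme 0.325 nM, preceded by 30 min compound pre-incubation; buffer Tris/MgCl2/KCl/DTT/Tween, 4% DMSO final. IC50 from curve fit of % inhibition.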

[3] = tested on: ARPE-19 cells stably expressing XBP1 (a.a. 1-376); experiment: Cellular XBP1 splicing assay (NanoLuc luciferase, thapsigargin); format: cell-based; conditions: thapsigargin 150 nM
In short: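 ARPE-19 cells carrying an XBP1(1-376)-NanoLuc splicing reporter were pretreated with compound (10-point ½-log series, 0.117% DMSO) for 30 min, then stressed with 150 nM thapsigargin for 4 h at 37° C. Luminescence was read, and IC50 values came from sigmoidal fits of percent inhibition of control.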

T1 sequence (O75460 468-977 limits assumed): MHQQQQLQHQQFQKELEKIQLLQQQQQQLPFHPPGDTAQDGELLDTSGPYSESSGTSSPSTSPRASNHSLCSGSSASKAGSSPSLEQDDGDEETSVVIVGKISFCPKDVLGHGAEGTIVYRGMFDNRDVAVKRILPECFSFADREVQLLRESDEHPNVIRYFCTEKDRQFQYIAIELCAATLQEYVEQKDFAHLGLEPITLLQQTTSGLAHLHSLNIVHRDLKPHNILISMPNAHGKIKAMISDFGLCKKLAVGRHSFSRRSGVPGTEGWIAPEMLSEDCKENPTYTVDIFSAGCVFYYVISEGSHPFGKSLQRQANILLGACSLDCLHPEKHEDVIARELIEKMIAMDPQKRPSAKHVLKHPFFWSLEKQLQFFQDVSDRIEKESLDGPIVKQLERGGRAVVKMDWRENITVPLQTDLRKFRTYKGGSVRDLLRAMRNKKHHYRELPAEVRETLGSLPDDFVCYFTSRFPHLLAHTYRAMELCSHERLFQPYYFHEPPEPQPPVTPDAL

| Structure (SMILES) | IC50 [1] [nM] | IC50 [2] [nM] | IC50 ([3]; 4 hour) [nM] | IC50 ([3]; Homo sapiens, ARPE-19, 4 h) [nM] |
| --- | --- | --- | --- | --- |
| CC(C)n1nc(-c2ccc(NS(=O)(=O)Cc3ccccc3F)c(F)c2)c2c(N)ncc(C3=CCC(NC4COC4)CC3)c21 (single isomer, unassigned) [Compound B2, N-(4-(4-amino-1-isopropyl-7-(4-(oxetan-3-ylamino)cyclohex-1-en-1-yl)-1H-pyrazolo[4,3-c]pyridin-3-yl)-2-fluorophenyl)-1-(2-fluorophenyl)methanesulfonamide] | 1.9 | 0.8 | 6.5 |  |
| CC(C)n1nc(-c2cc(F)c(NS(=O)(=O)Cc3ccccc3Cl)cc2F)c2c(N)ncc(C3=CCC(NC4COC4)CC3)c21 (single isomer, unassigned) [Compound B6, N-(4-(4-amino-1-isopropyl-7-(4-(oxetan-3-ylamino)cyclohex-1-en-1-yl)-1H-pyrazolo[4,3-c]pyridin-3-yl)-2,5-difluorophenyl)-1-(2-chlorophenyl)methanesulfonamide] | 5.2 | 5.1 | 47 |  |
| CC(C)n1nc(-c2cc(F)c(NS(=O)(=O)c3ccccc3Cl)cc2F)c2c(N)ncc(C3=CCC(NC4COC4)CC3)c21 (single isomer, unassigned) [Compound B10, N-(4-(4-amino-1-isopropyl-7-(4-(oxetan-3-ylamino)cyc1ohex-1-en-1-yl)-1H-pyrazolo[4,3-c]pyridin-3-yl)-2,5-difluorophenyl)-2-chlorobenzenesulfonamide] | 7 | 13 | 57 |  |
| CC(C)n1nc(-c2ccc(NS(=O)(=O)Cc3ccccc3Cl)c(F)c2)c2c(N)ncc(C3=CCC(NC4COC4)CC3)c21 (single isomer, unassigned) [Compound B12, N-(4-(4-amino-1-isopropyl-7-(4-(oxetan-3-ylamino)cyclohex-1-en-1-yl)-1H-pyrazolo[4,3-c]pyridin-3-yl)-2-fluorophenyl)-1-(2-chlorophenyl)methanesulfonamide] | 1.8 | 1.6 | 14 |  |
| CCn1nc(-c2ccc(NS(=O)(=O)Cc3ccccc3F)c(F)c2)c2c(N)ncc(C3=CCC(NC4COC4)CC3)c21 (single isomer, unassigned) [Compound B26, N-(4-(4-amino-1-ethyl-7-(4-(oxetan-3-ylamino)cyclohex-1-en-1-yl)-1H-pyrazolo[4,3-c]pyridin-3-yl)-2-fluorophenyl)-1-(2-fluorophenyl)methanesulfonamide] | 4.1 | 2.7 | 22 |  |
| CCn1nc(-c2ccc(NS(=O)(=O)Cc3ccccc3Cl)c(F)c2)c2c(N)ncc(C3=CCC(NC4COC4)CC3)c21 (single isomer, unassigned) [Compound B28, N-(4-(4-amino-1-ethyl-7-(4-(oxetan-3-ylamino)cyclohex-1-en-1-yl)-1H-pyrazolo[4,3-c]pyridin-3-yl)-2-fluorophenyl)-1-(2-chlorophenyl)methanesulfonamide] | 3.9 | 2.4 | 27 |  |
| CC(C)n1nc(-c2ccc(NS(=O)(=O)c3ccccc3F)c(F)c2)c2c(N)ncc(C3=CCC(NC4COC4)CC3)c21 (single isomer, unassigned) [Compound B59, N-(4-(4-amino-1-isopropyl-7-(4-(oxetan-3-ylamino)cyclohex-1-en-1-yl)-1H-pyrazolo[4,3-c]pyridin-3-yl)-2-fluorophenyl)-2-fluorobenzenesulfonamide] | 5.9 |  | 36 |  |
| CC(C)n1nc(-c2ccc(NS(=O)(=O)c3ccccc3F)c(F)c2)c2c(N)ncc([C@H]3CC[C@H](NC4COC4)CC3)c21 [Compound A1, N-(4-(4-amino-1-isopropyl-7-((1r,4r)-4-(oxetan-3-ylamino)cyclohexyl)-1H-pyrazolo[4,3-c]pyridin-3-yl)-2-fluorophenyl)-2-fluorobenzenesulfonamide] | 1.9 | 5.7 |  | 7.9 |
| CC(C)n1nc(-c2ccc(NS(=O)(=O)c3ccccc3Cl)c(F)c2)c2c(N)ncc([C@H]3CC[C@H](NC4COC4)CC3)c21 [Compound A34, N-(4-(4-amino-1-isopropyl-7-((1r,4r)-4-(oxetan-3-ylamino)cyclohexyl)-1H-pyrazolo[4,3-c]pyridin-3-yl)-2-fluorophenyl)-2-chlorobenzenesulfonamide] | 3 | 3.5 |  | 4.3 |
| Nc1ncc([C@H]2CC[C@H](NC3COC3)CC2)c2c1c(-c1ccc(NS(=O)(=O)c3ccccc3F)c(F)c1)nn2C1CC1 [Compound A41, N-(4-(4-amino-1-cyclopropyl-7-((1r,4r)-4-(oxetan-3-ylamino)cyclohexyl)-1H-pyrazolo[4,3-c]pyridin-3-yl)-2-fluorophenyl)-2-fluorobenzenesulfonamide] | 4.3 | 8 |  | 16 |
| Nc1ncc([C@H]2CC[C@H](NC3COC3)CC2)c2c1c(-c1ccc(NS(=O)(=O)Cc3ccccc3Cl)c(F)c1)nn2C1CC1 [Compound A55, N-(4-(4-amino-1-cyclopropyl-7-((1r,4r)-4-(oxetan-3-ylamino)cyclohexyl)-1H-pyrazolo[4,3-c]pyridin-3-yl)-2-fluorophenyl)-1-(2-chlorophenyl)methanesulfonamide] |  | 0.7 |  | 7.2 |
| Nc1ncc([C@H]2CC[C@H](NC3COC3)CC2)c2c1c(-c1ccc(NS(=O)(=O)c3ccccc3Cl)c(F)c1)nn2C1CC1 [Compound A56, N-(4-(4-amino-1-cyclopropyl-7-((1r,4r)-4-(oxetan-3-ylamino)cyclohexyl)-1H-pyrazolo[4,3-c]pyridin-3-yl)-2-fluorophenyl)-2-chlorobenzenesulfonamide] |  | 3.5 |  | 15 |
| COCC(C)N[C@H]1CC[C@H](c2cnc(N)c3c(-c4ccc(NS(=O)(=O)Cc5ccccc5Cl)c(F)c4)nn(C(C)C)c32)CC1 (stereo partly shown) [Compound A58, N-(4-(4-amino-1-isopropyl-7-((1r,4r)-4-((1-methoxypropan-2-yl)amino)cyclohexyl)-1H-pyrazolo[4,3-c]pyridin-3-yl)-2-fluorophenyl)-1-(2-chlorophenyl)methanesulfonamide] |  | 0.6 |  | 4.9 |
| COCC(C)NC1CC=C(c2cnc(N)c3c(-c4ccc(NS(=O)(=O)c5ccccc5Cl)c(F)c4)nn(C(C)C)c23)CC1 (stereo not shown) [Compound B3] |  | 7 |  | 11 |
| CCn1nc(-c2cc(F)c(NS(=O)(=O)c3ccccc3F)cc2F)c2c(N)ncc(C3=CCC(NC4COC4)CC3)c21 (stereo not shown) [Compound B30, N-(4-(4-amino-1-ethyl-7-(4-(oxetan-3-ylamino)cyclohex-1-en-1-yl)-1H-pyrazolo[4,3-c]pyridin-3-yl)-2,5-difluorophenyl)-2-fluorobenzenesulfonamide] |  | 82 |  | 740 |
| CCn1nc(-c2cc(F)c(NS(=O)(=O)c3ccccc3Cl)cc2F)c2c(N)ncc(C3=CCC(NC4COC4)CC3)c21 (stereo not shown) [Compound B31, N-(4-(4-amino-1-ethyl-7-(4-(oxetan-3-ylamino)cyclohex-1-en-1-yl)-1H-pyrazolo[4,3-c]pyridin-3-yl)-2,5-difluorophenyl)-2-chlorobenzenesulfonamide] |  | 47 |  | 130 |
| CCn1nc(-c2cc(F)c(NS(=O)(=O)Cc3ccccc3Cl)cc2F)c2c(N)ncc(C3=CCC(NC4COC4)CC3)c21 (stereo not shown) [Compound B32, N-(4-(4-amino-1-ethyl-7-(4-(oxetan-3-ylamino)cyclohex-1-en-1-yl)-1H-pyrazolo[4,3-c]pyridin-3-yl)-2,5-difluorophenyl)-1-(2-chlorophenyl)methanesulfonamide] |  | 21 |  | 340 |
| CCn1nc(-c2ccc(NS(=O)(=O)c3cc(OC)ccc3Cl)c(F)c2)c2c(N)ncc(C3=CCC(NC4COC4)CC3)c21 (stereo not shown) [Compound B37, N-(4-(4-amino-1-ethyl-7-(4-(oxetan-3-ylamino)cyclohex-1-en-1-yl)-1H-pyrazolo[4,3-c]pyridin-3-yl)-2-fluorophenyl)-2-chloro-5-methoxybenzenesulfonamide] |  | 20 |  | 74 |
| CC(C)n1nc(-c2cc(F)c(NS(=O)(=O)c3ccccc3F)cc2F)c2c(N)ncc(C3=CCC(NC4COC4)CC3)c21 (stereo not shown) [Compound B60, N-(4-(4-amino-1-isopropyl-7-(4-(oxetan-3-ylamino)cyclohex-1-en-1-yl)-1H-pyrazolo[4,3-c]pyridin-3-yl)-2,5-difluorophenyl)-2-fluorobenzenesulfonamide] |  | 79 |  | 240 |
| CC(C)n1nc(-c2ccc(NS(=O)(=O)c3ccccc3Cl)c(F)c2)c2c(N)ncc(C3=CCC(NCCF)CC3)c21 (stereo not shown) [Compound B63, N-(4-(4-amino-7-(4-((2-fluoroethyl)amino)cyclohex-1-en-1-yl)-1-isopropyl-1H-pyrazolo[4,3-c]pyridin-3-yl)-2-fluorophenyl)-2-chlorobenzenesulfonamide] |  | 16 |  | 21 |

— patent US20220153734A1, “Pyrazolopyridine Compounds For IRE1 Inhibition” (Optikira, LLC, priority 2019, published 2022)
